Experimental data published in US20230416232A1, “PYRIMIDINE COMPOUNDS, COMPOSITIONS, AND MEDICINAL APPLICATIONS THEREOF” (Blueprint Medicines Corporation, priority 2020, published 2023).

How the values were obtained:
Type in all cases: cell-based
[1] = target: EGFR (A767_dupASV) expressing Ba/F3 stable cell line (Homo sapiens, UniProt P00533, DUP767-769, cells depend on it); assay: Cellular proliferation (Alamar Blue) assay, EGFR (A767_dupASV) Ba/F3; conditions: 72 hr, read-out: A767 IC50
Procedure: (§1) Cell line details: • 1. EGFR(D770_N771insSVD) expressing Ba/F3 stable cell line • 2. EGFR (A767_dupASV) expressing Ba/F3 stable cell line • 3. A431 cells • 4. EGFR (H773insNPH) expressing Ba/F3 stable cell line • 5. HER2 (A775_G776insYVMA) expressing Ba/F3 stable cell line
(§2) • 1. Seed cells at 5000 for A431 and 15,000 cells for Ba/F3 in 100 μL/well in complete media (for A431: DMEM with 10% FBS and for Ba/F3 cells: RPMI with 10% FBS) in 96-well tissue culture plate. Leave outer wells without cells for background measurements. Incubate at 37 degree Celsius in 5% CO2 humidified incubator for 16-18 hours. • 2. Add 0.025 ml of 5X concentration compound dilution or DMSO control. Final compound concentration range is 10-0.0005 μM prepared in 3-fold serial dilutions. Incubate for 72 hr at 37 degree Celsius in 5% CO2 humidified incubator. • 3. Add 0.0125 ml Alamar Blue™ reagent to each well with multi-channel pipette and tap gently on each side of the plate to mix. Incubate for 3 hours at 37 degree Celsius in 5% CO2 humidified incubator. • 4. […] Data analysis was performed using XLfit 5.5.0.5.

[2] = target: EGFR(D770_N771insSVD) expressing Ba/F3 stable cell line (Homo sapiens, UniProt P00533, DUP768-770, cells depend on it); assay: Cellular proliferation (Alamar Blue) assay, EGFR(D770_N771insSVD) Ba/F3; conditions: 72 hr, read-out: D770 IC50
Sequence of EGFR(D770_N771insSVD) expressing Ba/F3 stable cell line (P00533 with tags, fused parts or gaps DUP768-770): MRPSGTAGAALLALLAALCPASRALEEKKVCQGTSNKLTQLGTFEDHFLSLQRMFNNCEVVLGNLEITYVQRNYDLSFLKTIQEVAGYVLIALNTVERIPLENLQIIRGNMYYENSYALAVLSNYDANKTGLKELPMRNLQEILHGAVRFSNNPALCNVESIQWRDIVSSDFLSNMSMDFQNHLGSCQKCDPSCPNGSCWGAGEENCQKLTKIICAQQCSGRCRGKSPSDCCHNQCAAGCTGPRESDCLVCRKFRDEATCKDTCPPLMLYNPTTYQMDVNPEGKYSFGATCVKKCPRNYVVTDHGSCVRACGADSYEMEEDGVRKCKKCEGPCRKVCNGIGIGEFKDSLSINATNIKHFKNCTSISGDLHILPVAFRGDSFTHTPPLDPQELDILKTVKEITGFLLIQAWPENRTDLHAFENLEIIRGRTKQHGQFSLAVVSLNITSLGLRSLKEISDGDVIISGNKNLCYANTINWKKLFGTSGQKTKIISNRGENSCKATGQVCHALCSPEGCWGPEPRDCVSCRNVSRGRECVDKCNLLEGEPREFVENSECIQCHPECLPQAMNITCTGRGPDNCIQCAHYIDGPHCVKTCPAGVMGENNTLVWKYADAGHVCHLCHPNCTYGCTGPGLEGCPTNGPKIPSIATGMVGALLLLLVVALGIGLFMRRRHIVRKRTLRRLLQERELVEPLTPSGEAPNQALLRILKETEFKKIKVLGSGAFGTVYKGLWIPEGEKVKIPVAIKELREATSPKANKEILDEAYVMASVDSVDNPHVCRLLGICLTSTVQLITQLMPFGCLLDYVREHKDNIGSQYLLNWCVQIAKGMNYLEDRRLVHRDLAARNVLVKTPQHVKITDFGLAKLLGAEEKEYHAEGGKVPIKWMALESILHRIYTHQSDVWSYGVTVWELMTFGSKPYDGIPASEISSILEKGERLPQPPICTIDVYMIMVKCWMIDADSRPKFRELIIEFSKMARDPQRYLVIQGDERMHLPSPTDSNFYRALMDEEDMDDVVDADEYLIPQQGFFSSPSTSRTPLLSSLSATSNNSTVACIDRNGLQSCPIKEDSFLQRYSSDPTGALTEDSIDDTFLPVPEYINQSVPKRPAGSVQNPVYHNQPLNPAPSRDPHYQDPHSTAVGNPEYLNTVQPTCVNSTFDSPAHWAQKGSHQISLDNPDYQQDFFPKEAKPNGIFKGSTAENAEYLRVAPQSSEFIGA
Procedure: as §1, §2

[3] = system: A431 cells; assay: Cellular proliferation (Alamar Blue) assay, A431 cells; conditions: Homo sapiens, A-431, 72 h, A431 cells; 72 hr; Alamar Blue; read-out: A431 IC50
Procedure: as §2

[4] = target: HER2 (A775_G776insYVMA) expressing Ba/F3 stable cell line (Homo sapiens, UniProt P04626, DUP772-775, cells depend on it); assay: Cellular proliferation (Alamar Blue) assay, HER2 (A775_G776insYVMA) Ba/F3; conditions: HER2 (A775_G776insYVMA) Ba/F3 cells; 72 hr; Alamar Blue; read-out: YVMA IC50
Sequence of HER2 (A775_G776insYVMA) expressing Ba/F3 stable cell line (P04626 with tags, fused parts or gaps DUP772-775): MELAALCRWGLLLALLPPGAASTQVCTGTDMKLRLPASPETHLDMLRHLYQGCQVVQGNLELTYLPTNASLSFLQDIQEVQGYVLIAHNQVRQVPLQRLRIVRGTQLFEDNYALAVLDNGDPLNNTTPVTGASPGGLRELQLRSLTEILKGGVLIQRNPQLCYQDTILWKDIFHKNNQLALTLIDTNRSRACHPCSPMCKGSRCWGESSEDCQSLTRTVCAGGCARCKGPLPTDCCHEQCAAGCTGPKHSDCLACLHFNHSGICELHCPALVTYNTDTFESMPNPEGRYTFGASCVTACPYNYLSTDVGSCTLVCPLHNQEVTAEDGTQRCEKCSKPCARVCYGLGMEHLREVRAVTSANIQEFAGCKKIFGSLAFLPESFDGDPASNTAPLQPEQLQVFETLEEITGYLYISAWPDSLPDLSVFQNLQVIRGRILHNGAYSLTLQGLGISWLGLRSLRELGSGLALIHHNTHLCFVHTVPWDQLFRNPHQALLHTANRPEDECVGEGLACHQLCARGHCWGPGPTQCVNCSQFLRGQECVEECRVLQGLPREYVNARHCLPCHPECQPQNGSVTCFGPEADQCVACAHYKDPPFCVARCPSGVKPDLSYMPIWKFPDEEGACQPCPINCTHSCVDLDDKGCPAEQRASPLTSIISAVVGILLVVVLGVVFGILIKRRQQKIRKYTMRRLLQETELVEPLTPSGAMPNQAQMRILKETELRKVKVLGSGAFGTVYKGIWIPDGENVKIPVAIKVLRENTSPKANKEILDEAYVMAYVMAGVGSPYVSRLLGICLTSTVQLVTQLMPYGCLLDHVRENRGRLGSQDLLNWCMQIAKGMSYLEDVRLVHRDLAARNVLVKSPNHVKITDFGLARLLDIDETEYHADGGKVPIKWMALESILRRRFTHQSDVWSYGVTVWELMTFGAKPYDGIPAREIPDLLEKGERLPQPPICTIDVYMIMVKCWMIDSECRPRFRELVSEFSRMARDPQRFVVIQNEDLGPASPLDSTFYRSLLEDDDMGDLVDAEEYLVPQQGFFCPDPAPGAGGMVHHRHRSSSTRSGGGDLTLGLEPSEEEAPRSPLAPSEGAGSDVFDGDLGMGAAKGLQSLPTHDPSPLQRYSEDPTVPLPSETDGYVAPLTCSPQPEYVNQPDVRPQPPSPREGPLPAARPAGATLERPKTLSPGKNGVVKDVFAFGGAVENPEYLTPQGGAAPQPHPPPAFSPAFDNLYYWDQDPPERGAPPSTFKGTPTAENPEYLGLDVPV
Procedure: as §1, §2

Sequence of EGFR (A767_dupASV) expressing Ba/F3 stable cell line (P00533 with tags, fused parts or gaps DUP767-769): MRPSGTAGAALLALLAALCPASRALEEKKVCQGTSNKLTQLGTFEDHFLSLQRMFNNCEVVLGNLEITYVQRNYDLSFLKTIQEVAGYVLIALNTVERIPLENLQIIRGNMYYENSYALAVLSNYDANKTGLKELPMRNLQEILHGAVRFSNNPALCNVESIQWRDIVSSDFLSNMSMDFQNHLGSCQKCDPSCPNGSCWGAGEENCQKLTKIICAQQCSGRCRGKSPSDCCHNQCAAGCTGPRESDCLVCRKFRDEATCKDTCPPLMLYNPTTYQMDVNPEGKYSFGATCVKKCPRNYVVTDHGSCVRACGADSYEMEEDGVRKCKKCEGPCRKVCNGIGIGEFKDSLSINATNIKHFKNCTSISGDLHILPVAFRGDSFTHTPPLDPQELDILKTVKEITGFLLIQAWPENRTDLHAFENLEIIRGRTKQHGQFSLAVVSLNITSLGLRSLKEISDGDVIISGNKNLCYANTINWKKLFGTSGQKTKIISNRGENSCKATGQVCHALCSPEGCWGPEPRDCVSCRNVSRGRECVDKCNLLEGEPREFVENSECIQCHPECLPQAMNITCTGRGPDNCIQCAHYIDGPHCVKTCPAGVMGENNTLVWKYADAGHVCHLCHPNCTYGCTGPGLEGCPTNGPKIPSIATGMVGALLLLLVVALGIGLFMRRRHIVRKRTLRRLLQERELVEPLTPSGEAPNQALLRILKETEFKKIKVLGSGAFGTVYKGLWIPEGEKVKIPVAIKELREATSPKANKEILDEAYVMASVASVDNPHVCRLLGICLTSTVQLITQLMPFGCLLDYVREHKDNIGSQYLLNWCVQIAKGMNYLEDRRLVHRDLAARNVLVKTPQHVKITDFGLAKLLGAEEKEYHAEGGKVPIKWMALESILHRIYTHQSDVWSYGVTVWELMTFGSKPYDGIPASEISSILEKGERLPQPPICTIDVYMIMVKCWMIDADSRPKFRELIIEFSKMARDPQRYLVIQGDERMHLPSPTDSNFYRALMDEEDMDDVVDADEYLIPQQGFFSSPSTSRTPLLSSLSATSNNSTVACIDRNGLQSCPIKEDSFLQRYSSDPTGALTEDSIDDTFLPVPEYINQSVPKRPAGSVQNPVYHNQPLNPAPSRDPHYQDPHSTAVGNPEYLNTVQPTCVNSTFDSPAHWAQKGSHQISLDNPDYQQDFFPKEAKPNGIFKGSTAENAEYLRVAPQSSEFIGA

Structure (SMILES): C=CC(=O)Nc1ccc(F)c(Nc2nc(Nc3cnn(C)c3)ncc2-c2cc(F)c(F)c(OC)c2)c1 [Compound 126, N-(3-((5-(3,4-difluoro-5-methoxyphenyl)-2-((1-methyl-1H-pyrazol-4-yl)amino)pyrimidin-4-yl)amino)-4-fluorophenyl)acrylamide]
- GI50 [1]: 100 nM
- GI50 [2]: 40 nM
- IC50 [3]: 43 nM
- GI50 [4]: 153 nM

Structure (SMILES): C=CC(=O)Nc1ccc(F)c(Nc2nc(Nc3cnn(C)c3)ncc2-c2ccc3c(c2)CCN3C)c1 [Compound 59, N-(4-fluoro-3-((2-((1-methyl-1H-pyrazol-4-yl)amino)-5-(1-methylindolin-5-yl)pyrimidin-4-yl)amino)phenyl)acrylamide]
- GI50 [1]: 957 nM
- GI50 [2]: 300 nM
- IC50 [3]: 575 nM

Structure (SMILES): C=CC(=O)Nc1ccc(F)c(Nc2nc(Nc3cnn(C)c3)ncc2-c2cc(F)c(Br)c(Cl)c2)c1 [Compound 123, N-(3-((5-(4-bromo-3-chloro-5-fluorophenyl)-2-((1-methyl-1H-pyrazol-4-yl)amino)pyrimidin-4-yl)amino)-4-fluorophenyl)acrylamide]
- GI50 [1]: 50 nM
- GI50 [2]: 40 nM
- IC50 [3]: 71 nM
- GI50 [4]: 66 nM

Structure (SMILES): C=CC(=O)Nc1ccc(F)c(Nc2nc(Nc3cn(C)nc3Cl)ncc2-c2ccc(F)c(Cl)c2)c1 [Compound 52, N-(3-((2-((3-chloro-1-methyl-1H-pyrazol-4-yl)amino)-5-(3-chloro-4-fluorophenyl)pyrimidin-4-yl)amino)-4-fluorophenyl)acrylamide]
- GI50 [1]: 307 nM
- GI50 [2]: 104 nM
- IC50 [3]: 194 nM

Structure (SMILES): C=CC(=O)Nc1ccc(F)c(Nc2nc(Nc3cnn(C)c3)ncc2-c2cnc(Cl)c(C(F)(F)F)c2)c1 [Compound 44, N-(3-((5-(6-chloro-5-(trifluoromethyl)pyridin-3-yl)-2-((1-methyl-1H-pyrazol-4-yl)amino)pyrimidin-4-yl)amino)-4-fluorophenyl)acrylamidet]
- GI50 [1]: 15 nM
- GI50 [2]: 24 nM
- IC50 [3]: 52 nM
- GI50 [4]: 36 nM

Structure (SMILES): C=CC(=O)Nc1ccc(F)c(Nc2nc(Nc3cnn(C)c3)ncc2-c2ccc(N3CCN(C)CC3)c(F)c2)c1 [Compound 81, N-(4-fluoro-3-((5-(3-fluoro-4-(4-methylpiperazin-1-yl)phenyl)-2-((1-methyl-1H-pyrazol-4-yl)amino)pyrimidin-4-yl)amino)phenyl)acrylamide]
- GI50 [1]: 343 nM
- GI50 [2]: 906 nM
- IC50 [3]: 3010 nM

Structure (SMILES): CN(C)C/C=C/C(=O)Nc1ccc(F)c(Nc2nc(Nc3cnn(C)c3)ncc2-c2ccc3c(c2)OCC3)c1 [Compound 178, (E)-N-(3-((5-(2,3-dihydrobenzofuran-6-yl)-2-((1-methyl-1H-pyrazol-4-yl)amino)pyrimidin-4-yl)amino)-4-fluorophenyl)-4-(dimethylamino)but-2-enamide]
- GI50 [1]: 722 nM
- GI50 [2]: 927 nM
- IC50 [3]: 350 nM

Structure (SMILES): C=CC(=O)Nc1ccc(F)c(Nc2nc(Nc3cnn(C)c3)ncc2-c2ccc(OC)c(OC)c2)c1 [Compound 2, N-(3-((5-(3,4-dimethoxyphenyl)-2-((1-methyl-1H-pyrazol-4-yl)amino)pyrimidin-4-yl)amino)-4-fluorophenyl)acrylamide]
- GI50 [1]: 896 nM
- GI50 [2]: 1050 nM
- IC50 [3]: > 10000 nM

Structure (SMILES): C=CC(=O)Nc1ccc(F)c(Nc2nc(Nc3cnn(C)c3)ncc2-c2cc(F)cc(OCC(F)(F)F)c2)c1 [Compound 176, N-(4-fluoro-3-((5-(3-fluoro-5-(2,2,2-trifluoroethoxy)phenyl)-2-((1-methyl-1H-pyrazol-4-yl)amino)pyrimidin-4-yl)amino)phenyl)acrylamide]
- GI50 [1]: 859 nM
- GI50 [2]: 1130 nM
- GI50 [4]: > 10000 nM

Structure (SMILES): [2H]C([2H])=CC(=O)Nc1ccc(F)c(Nc2nc(Nc3cnn(C)c3)ncc2-c2cnc(F)c(F)c2)c1 [Compound 103, N-(3-((5-(5,6-difluoropyridin-3-yl)-2-((1-methyl-1H-pyrazol-4-yl)amino)pyrimidin-4-yl)amino)-4-fluorophenyl)acrylamide-3,3-d2]
- GI50 [1]: 14 nM
- GI50 [2]: 25 nM
- IC50 [3]: 20 nM

Structure (SMILES): C=C(F)C(=O)Nc1ccc(F)c(Nc2nc(Nc3cnn(C)c3)ncc2-c2ccc(Br)c(F)c2)c1 [Compound 177, N-(3-((5-(4-bromo-3-fluorophenyl)-2-((1-methyl-1H-pyrazol-4-yl)amino)pyrimidin-4-yl)amino)-4-fluorophenyl)-2-fluoroacrylamide]
- GI50 [1]: 1730 nM
- GI50 [2]: 939 nM
- IC50 [3]: 326 nM

Structure (SMILES): C=CC(=O)Nc1ccc(F)c(Nc2nc(Nc3cnn(C)c3)ncc2-c2ccc(N3CC(OC)C3)c(F)c2)c1 [Compound 79, N-(4-fluoro-3-((5-(3-fluoro-4-(3-methoxyazetidin-1-yl)phenyl)-2-((1-methyl-1H-pyrazol-4-yl)amino)pyrimidin-4-yl)amino)phenyl)acrylamide]
- GI50 [1]: 248 nM
- GI50 [2]: 312 nM
- IC50 [3]: 105 nM

Structure (SMILES): C=CC(=O)Nc1ccc(F)c(Nc2nc(Nc3cnn(C)c3)ncc2-c2ccc(F)cc2Cl)c1 [Compound 12, N-(3-((5-(2-chloro-4-fluorophenyl)-2-((1-methyl-1H-pyrazol-4-yl)amino)pyrimidin-4-yl)amino)-4-fluorophenyl)acrylamide]
- GI50 [1]: 919 nM
- GI50 [2]: 363 nM

Structure (SMILES): C=CC(=O)Nc1ccc(F)c(Nc2nc(Nc3cnn(C)c3)ncc2-c2ccc(N(C)CCN(C)C)c(F)c2)c1 [Compound 86, N-(3-((5-(4-((2-(dimethylamino)ethyl)(methyl)amino)-3-fluorophenyl)-2-((1-methyl-1H-pyrazol-4-yl)amino)pyrimidin-4-yl)amino)-4-fluorophenyl)acrylamide]
- GI50 [1]: 2240 nM
- GI50 [2]: 2940 nM
- IC50 [3]: 3580 nM

Structure (SMILES): C=CC(=O)Nc1ccc(F)c(Nc2nc(Nc3cnn(C)c3)ncc2-c2ccc(C(F)(F)F)cc2OC)c1 [Compound 10, N-(4-fluoro-3-((5-(2-methoxy-4-(trifluoromethyl)phenyl)-2-((1-methyl-1H-pyrazol-4-yl)amino)pyrimidin-4-yl)amino)phenyl)acrylamide]
- GI50 [1]: 3230 nM
- GI50 [2]: 3940 nM
- IC50 [3]: > 10000 nM

Structure (SMILES): C=CC(=O)Nc1ccc(F)c(Nc2nc(Nc3cnn(C)c3)ncc2-c2cc(F)cc(N(C)C)c2)c1 [Compound 42, N-(3-((5-(3-(dimethylamino)-5-fluorophenyl)-2-((1-methyl-1H-pyrazol-4-yl)amino)pyrimidin-4-yl)amino)-4-fluorophenyl)acrylamide]
- GI50 [1]: 737 nM
- GI50 [2]: 942 nM
- IC50 [3]: 4510 nM

Structure (SMILES): C=CC(=O)Nc1ccc(F)c(Nc2nc(Nc3cnn(C)c3)ncc2-c2ccc(N3CC(N(C)C)C3)c(F)c2)c1 [Compound 83, N-(3-((5-(4-(3-(dimethylamino)azetidin-1-yl)-3-fluorophenyl)-2-((1-methyl-1H-pyrazol-4-yl)amino)pyrimidin-4-yl)amino)-4-fluorophenyl)acrylamide]
- GI50 [1]: 376 nM
- GI50 [2]: 1010 nM
- IC50 [3]: 1060 nM

Structure (SMILES): C=CC(=O)Nc1ccc(F)c(Nc2nc(Nc3cnn(C)c3)ncc2-c2cc(Cl)ccc2OC)c1 [Compound 23, N-(3-((5-(5-chloro-2-methoxyphenyl)-2-((1-methyl-1H-pyrazol-4-yl)amino)pyrimidin-4-yl)amino)-4-fluorophenyl)acrylamide]
- GI50 [1]: 2760 nM
- GI50 [2]: 2730 nM
- IC50 [3]: 2890 nM
